According to patent US7528138B2, “Pyrazolo[1,5-a]pyrimidines useful as inhibitors of protein kinases” (Vertex Pharmaceuticals Incorporated, priority 2004, dated 2009):

How the values were obtained:
JAK3 = biological target: T1, JAK3 (Homo sapiens, UniProt P52333); test: JAK3 Inhibition Assay, 33P incorporation; type: biochemical; details: enzyme inhibition data (Ki), Table 11
T1 sequence (P52333 1-1124): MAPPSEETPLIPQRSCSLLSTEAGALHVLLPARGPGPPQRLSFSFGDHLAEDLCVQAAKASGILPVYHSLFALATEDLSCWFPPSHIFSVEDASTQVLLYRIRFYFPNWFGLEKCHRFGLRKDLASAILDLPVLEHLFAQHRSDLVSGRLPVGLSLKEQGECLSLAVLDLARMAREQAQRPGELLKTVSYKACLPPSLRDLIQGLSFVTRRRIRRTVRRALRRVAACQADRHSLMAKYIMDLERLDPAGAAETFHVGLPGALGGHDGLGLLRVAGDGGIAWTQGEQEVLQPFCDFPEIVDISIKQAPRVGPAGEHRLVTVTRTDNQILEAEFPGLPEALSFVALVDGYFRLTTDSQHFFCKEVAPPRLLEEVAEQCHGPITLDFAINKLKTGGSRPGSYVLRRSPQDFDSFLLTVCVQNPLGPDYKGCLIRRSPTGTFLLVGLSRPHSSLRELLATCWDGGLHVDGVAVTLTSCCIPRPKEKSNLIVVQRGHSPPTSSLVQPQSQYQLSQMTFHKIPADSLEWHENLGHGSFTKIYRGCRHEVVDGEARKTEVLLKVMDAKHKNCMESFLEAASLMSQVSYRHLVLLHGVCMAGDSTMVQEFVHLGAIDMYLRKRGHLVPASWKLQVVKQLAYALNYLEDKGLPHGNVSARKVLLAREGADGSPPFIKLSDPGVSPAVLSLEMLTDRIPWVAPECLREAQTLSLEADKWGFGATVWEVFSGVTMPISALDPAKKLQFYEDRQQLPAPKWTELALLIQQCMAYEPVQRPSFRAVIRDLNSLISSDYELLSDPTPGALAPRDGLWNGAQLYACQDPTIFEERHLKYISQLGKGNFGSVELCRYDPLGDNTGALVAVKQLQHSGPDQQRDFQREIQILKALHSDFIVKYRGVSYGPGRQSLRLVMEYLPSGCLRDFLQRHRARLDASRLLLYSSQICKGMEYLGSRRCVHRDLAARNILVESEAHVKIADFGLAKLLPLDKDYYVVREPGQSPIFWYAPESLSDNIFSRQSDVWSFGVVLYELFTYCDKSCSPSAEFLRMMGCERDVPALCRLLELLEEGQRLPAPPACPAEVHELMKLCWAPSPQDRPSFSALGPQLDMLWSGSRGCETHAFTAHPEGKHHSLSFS
Method in brief: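 Recombinant JAK3 at 1 nM in HEPES pH 7.4 buffer with 10 mM MgCl2, 1 mM DTT and 0.01% BSA. Substrates were 5 μM ATP (200 uCi/μmole) and 1 μM poly(Glu)4Tyr, reacted 20 min at 25 °C. Stopped with TCA, and 33P incorporation counted on glass fiber filters.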

Aurora-2 = biological target: T2, Aurora-2 (Homo sapiens, UniProt O14965); test: Aurora-A (Aurora-2) Inhibition Assay, coupled enzyme assay; type: biochemical; details: enzyme inhibition data (Ki), Table 11; read-out: AurA Ki
T2 sequence (O14965 1-403): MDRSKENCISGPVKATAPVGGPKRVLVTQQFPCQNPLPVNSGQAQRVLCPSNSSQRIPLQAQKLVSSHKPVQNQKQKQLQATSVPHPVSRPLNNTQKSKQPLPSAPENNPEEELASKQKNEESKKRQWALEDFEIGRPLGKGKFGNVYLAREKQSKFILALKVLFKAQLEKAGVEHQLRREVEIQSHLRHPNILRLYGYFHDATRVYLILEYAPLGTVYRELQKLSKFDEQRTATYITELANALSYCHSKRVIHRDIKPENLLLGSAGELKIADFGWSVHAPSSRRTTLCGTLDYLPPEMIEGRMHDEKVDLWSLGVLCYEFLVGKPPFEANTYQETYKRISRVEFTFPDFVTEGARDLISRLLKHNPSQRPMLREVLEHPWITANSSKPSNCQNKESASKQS
Method in brief: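 Coupled pyruvate kinase/lactate dehydrogenase assay following NADH, pH 7.5 Hepes, 40 nM Aurora-2, 400 μM ATP and 570 μM Kemptide at 30 °C. Compound (top final typically 7.5 μM) preincubated 10 min; initial rates over 10 min; IC50 and Ki by non-linear regression.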

| Ki (JAK3) [nM] | Ki (Aurora-2) [nM] | SMILES |
| --- | --- | --- |
| > 5000 | 500 to 5000 | COc1ccc(-c2cnc3c(C#N)c(N)nn3c2)cc1 [Compound V-2] |
| > 5000 | 500 to 5000 | COc1ccncc1-c1cnc2c(-c3ccccn3)c(N)nn2c1 [Compound V-22] |
| > 5000 | 500 to 5000 | CCOC(=O)c1c(N)nn2cc(-c3ccc(Cl)cc3)cnc12 [Compound V-24] |
| > 5000 | 500 to 5000 | CCN(C(=O)c1c(N)nn2cc(-c3ccncn3)cnc12)C(C)C [Compound V-33] |
| 500 to 5000 | 500 to 5000 | CC(C)N1CCN(c2ccc(-c3cnc4c(-c5ccccn5)c(N)nn4c3)cc2)CC1 [Compound V-51] |
| > 5000 | 500 to 5000 | CN(C)CCNC(=O)c1cccc(-c2cnc3c(-c4ccccn4)c(N)nn3c2)c1 [Compound V-54] |
| > 5000 | 500 to 5000 | CN1CCN(C(=O)c2cccc(-c3cnc4c(-c5ccccn5)c(N)nn4c3)c2)CC1 [Compound V-55] |
| > 5000 | 500 to 5000 | Nc1nn2cc(N3CCOCC3)cnc2c1-c1ccccn1 [Compound V-57] |
| 500 to 5000 | 500 to 5000 | CCN(CCN)C(=O)c1ccc(-c2cnc3c(-c4ccccn4)c(N)nn3c2)nc1 [Compound V-62] |
| 500 to 5000 | < 500 | CCN1CCN(C(=O)c2ccc(-c3cnc4c(-c5ccccn5)c(N)nn4c3)nc2)CC1 [Compound V-63] |
| 500 to 5000 | < 500 | COC(=O)N1CCN(C(=O)c2ccc(-c3cnc4c(-c5ccccn5)c(N)nn4c3)nc2)CC1 [Compound V-64] |
| 500 to 5000 | 500 to 5000 | CN(C)CCNC(=O)c1ccc(-c2cnc3c(-c4ccccn4)c(N)nn3c2)nc1 [Compound V-65] |
| 500 to 5000 | < 500 | CC(C)N(C)C(=O)c1ccc(-c2cnc3c(-c4ccccn4)c(N)nn3c2)nc1 [Compound V-67] |
| 500 to 5000 | < 500 | COCCN1CCN(C(=O)c2ccc(-c3cnc4c(-c5ccccn5)c(N)nn4c3)nc2)CC1 [Compound V-68] |
| 500 to 5000 | < 500 | CN1CCCN(C(=O)c2ccc(-c3cnc4c(-c5ccccn5)c(N)nn4c3)nc2)CC1 [Compound V-70] |
| 500 to 5000 | < 500 | Nc1nn2cc(-c3ccc(C(=O)N4CCCC(CO)C4)cn3)cnc2c1-c1ccccn1 (stereo not shown) [Compound V-71] |
| 500 to 5000 | < 500 | C#CCN(C)C(=O)c1ccc(-c2cnc3c(-c4ccccn4)c(N)nn3c2)nc1 [Compound V-72] |
| > 5000 | 500 to 5000 | Nc1nn2cc(-c3ccc(C(=O)NCCF)cn3)cnc2c1-c1ccccn1 [Compound V-73] |
| 500 to 5000 | 500 to 5000 | CCN(CCCCN)C(=O)c1ccc(-c2cnc3c(-c4ccccn4)c(N)nn3c2)nc1 [Compound V-74] |
| > 5000 | < 500 | COCCN(C)C(=O)c1ccc(-c2cnc3c(-c4ccccn4)c(N)nn3c2)nc1 [Compound V-75] |
| 500 to 5000 | < 500 | CCOC(=O)N1CCN(C(=O)c2ccc(-c3cnc4c(-c5ccccn5)c(N)nn4c3)nc2)CC1 [Compound V-76] |
| 500 to 5000 | < 500 | CCN1CCN(C(=O)c2ccc(-c3cnc4c(-c5ccccn5)c(N)nn4c3)nc2)C(O)C1 (stereo not shown) [Compound V-78] |
| 500 to 5000 | < 500 | Nc1nn2cc(-c3ccc(C(=O)N4CCC[C@@H](O)C4)cn3)cnc2c1-c1ccccn1 [Compound V-79] |
| 500 to 5000 | < 500 | Nc1nn2cc(-c3ccc(C(=O)N4CCC(N)C4)cn3)cnc2c1-c1ccccn1 (stereo not shown) [Compound V-81] |
| > 5000 | 500 to 5000 | Nc1nn2cc(-c3ccc(C(=O)N4CCCCC4CCO)cn3)cnc2c1-c1ccccn1 (stereo not shown) [Compound V-82] |

| Ki (JAK3) [nM] | Ki (Aurora-2) [nM] | SMILES |
| --- | --- | --- |
| 500 to 5000 | < 500 | Nc1nn2cc(-c3ccc(C(=O)N4CCC(CCO)CC4)cn3)cnc2c1-c1ccccn1 [Compound V-83] |
| 500 to 5000 | 500 to 5000 | CCCN(CCCN)C(=O)c1ccc(-c2cnc3c(-c4ccccn4)c(N)nn3c2)nc1 [Compound V-85] |
| > 5000 | 500 to 5000 | Nc1nn2cc(-c3ccc(C(=O)N4CCC4)cn3)cnc2c1-c1ccccn1 [Compound V-86] |
| 500 to 5000 | < 500 | Nc1nn2cc(-c3ccc(C(=O)N4CCSCC4)cn3)cnc2c1-c1ccccn1 [Compound V-87] |
| 500 to 5000 | < 500 | CCN(C)C(=O)c1ccc(-c2cnc3c(-c4ccccn4)c(N)nn3c2)nc1 [Compound V-89] |
| 500 to 5000 | < 500 | CCN(CCC#N)C(=O)c1ccc(-c2cnc3c(-c4ccccn4)c(N)nn3c2)nc1 [Compound V-90] |
| 500 to 5000 | < 500 | CCCN(CCO)C(=O)c1ccc(-c2cnc3c(-c4ccccn4)c(N)nn3c2)nc1 [Compound V-92] |
| 500 to 5000 | < 500 | Nc1nn2cc(-c3ccc(C(=O)N4CCC[C@@H]4CO)cn3)cnc2c1-c1ccccn1 [Compound V-93] |
| > 5000 | 500 to 5000 | CN(CCN)C(=O)c1ccc(-c2cnc3c(-c4ccccn4)c(N)nn3c2)nc1 [Compound V-94] |
| 500 to 5000 | 500 to 5000 | Cc1cnc2c(-c3cc(NC(C)C)ncn3)c(N)nn2c1 [Compound V-273] |
| 500 to 5000 | 500 to 5000 | COc1ccccc1Nc1cc(-c2c(N)nn3cc(C)cnc23)ncn1 [Compound V-274] |
| 500 to 5000 | 500 to 5000 | Cc1cnc2c(-c3cc(N4CCCCC4)ncn3)c(N)nn2c1 [Compound V-276] |
| 500 to 5000 | 500 to 5000 | Cc1cnc2c(-c3cc(NCC4CC4)ncn3)c(N)nn2c1 [Compound V-277] |
| 500 to 5000 | 500 to 5000 | Cc1cnc2c(-c3cc(NCC4CCCO4)ncn3)c(N)nn2c1 (stereo not shown) [Compound V-278] |
| < 500 | < 500 | Cc1cnc2c(-c3cc(Nc4ccccc4)ncn3)c(N)nn2c1 [Compound V-279] |
| > 5000 | < 500 | Nc1nn2cc(Cl)cnc2c1-c1ccccn1 [Compound V-280] |
| 500 to 5000 | 500 to 5000 | CSc1cc(-c2c(N)nn3cc(C)cnc23)ncn1 [Compound V-281] |
| 500 to 5000 | 500 to 5000 | Cc1cnc2c(-c3cc(NC4CCN(Cc5ccccc5)CC4)ncn3)c(N)nn2c1 [Compound V-285] |
| 500 to 5000 | 500 to 5000 | Cc1cnc2c(-c3cc(NC4CCN(Cc5ccccc5)C4)ncn3)c(N)nn2c1 (stereo not shown) [Compound V-286] |
| 500 to 5000 | 500 to 5000 | Cc1cnc2c(-c3cc(NC4CC4)ncn3)c(N)nn2c1 [Compound V-289] |
| 500 to 5000 | 500 to 5000 | Cc1cnc2c(-c3cc(NC4CCC4)ncn3)c(N)nn2c1 [Compound V-290] |
| 500 to 5000 | 500 to 5000 | Cc1cnc2c(-c3cc(NC4CCCCC4)ncn3)c(N)nn2c1 [Compound V-291] |
| 500 to 5000 | 500 to 5000 | Cc1cnc2c(-c3cc(N[C@H](C)CO)ncn3)c(N)nn2c1 [Compound V-293] |
| 500 to 5000 | 500 to 5000 | CC[C@H](C)Nc1cc(-c2c(N)nn3cc(C)cnc23)ncn1 [Compound V-294] |
| 500 to 5000 | 500 to 5000 | Cc1cnc2c(-c3cc(N[C@@H](C)CO)ncn3)c(N)nn2c1 [Compound V-295] |
